Here are results for six compounds from ChEMBL document CHEMBL1201862, “PubChem BioAssay data set” (2004).

The test system of test [1] is Vero. The test is described as follows: cells. The test is classed as functional, cell-based. To be noted: Chlorocebus sabaeus.
Test [2] has as its target E3 ubiquitin-protein ligase Mdm2 (Homo sapiens, UniProt Q00987). The test is described as follows: enhancers of MDM2-luciferase reporter signal, concentration-effect titration, project on inhibitors of MDM2 ubiquitin ligase, cellular assay, luminescent readout, 384-well plate format (AID 1394).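 Note: MDM2 E3 inhibitors raise luminescence so EC50 is for signal enhancement.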 The test is classed as functional. Background: In a reporter assay the amount or activity of a reporter protein is the signal.

Test [3] in a line: cytotoxicity in HEK-293T cells, dose response, cytotoxicity control for TCR NF-kB inhibitor project, luminescence, T-cell screen hits (AID 489026).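 Note: cells exposed to compound about 14 hours before the viability readout.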 The test is classed as functional, cell-based.
The target in test [4] is T1, Heat shock factor protein 1 (Mus musculus, UniProt P38532).
T1 sequence (P38532 whole entry): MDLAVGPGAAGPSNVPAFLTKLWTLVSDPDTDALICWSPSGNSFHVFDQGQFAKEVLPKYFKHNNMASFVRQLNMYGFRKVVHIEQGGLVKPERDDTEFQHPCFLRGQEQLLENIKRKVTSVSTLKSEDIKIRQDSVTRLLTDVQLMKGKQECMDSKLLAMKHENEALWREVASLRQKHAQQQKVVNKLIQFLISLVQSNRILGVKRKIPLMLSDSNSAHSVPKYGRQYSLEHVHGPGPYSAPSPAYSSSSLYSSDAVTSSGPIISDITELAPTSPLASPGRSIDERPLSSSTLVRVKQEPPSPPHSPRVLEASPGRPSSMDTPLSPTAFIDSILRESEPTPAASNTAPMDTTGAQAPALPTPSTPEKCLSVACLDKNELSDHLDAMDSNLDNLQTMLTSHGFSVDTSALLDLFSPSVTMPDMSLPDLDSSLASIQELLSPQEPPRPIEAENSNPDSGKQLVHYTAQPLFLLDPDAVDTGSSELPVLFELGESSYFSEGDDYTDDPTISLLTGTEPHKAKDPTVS
The test is described as follows: HSF1 potentiators in luciferase reporter cells, confirmation, cell-based, NIH3T3, luminescence, dose retest (AID 435004).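 Note: stress induced by proteasome inhibitor MG132 added 30 min after compound; luciferase reporter driven by HSF1 response element in NIH3T3 cells; actives raise luminescence as potentiators of the MG132 stress response.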 The test is classed as functional.

Test [5] deals with T2, Microphthalmia-associated transcription factor (Homo sapiens, UniProt O75030).
T2 sequence (O75030 whole entry): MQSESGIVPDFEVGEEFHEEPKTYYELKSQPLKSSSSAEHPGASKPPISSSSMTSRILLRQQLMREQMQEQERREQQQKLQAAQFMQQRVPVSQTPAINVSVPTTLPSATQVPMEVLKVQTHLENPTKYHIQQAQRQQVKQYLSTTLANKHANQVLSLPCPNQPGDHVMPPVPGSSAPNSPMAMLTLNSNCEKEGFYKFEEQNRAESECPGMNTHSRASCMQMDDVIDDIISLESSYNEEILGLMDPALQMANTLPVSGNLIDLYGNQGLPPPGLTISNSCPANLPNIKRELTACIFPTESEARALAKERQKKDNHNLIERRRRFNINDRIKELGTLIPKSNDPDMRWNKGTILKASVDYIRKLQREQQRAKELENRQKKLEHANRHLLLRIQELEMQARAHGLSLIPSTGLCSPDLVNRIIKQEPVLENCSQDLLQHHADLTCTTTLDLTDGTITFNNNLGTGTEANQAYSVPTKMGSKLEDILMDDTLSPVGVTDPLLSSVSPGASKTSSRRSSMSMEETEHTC
The test is described as follows: TRPM1 promoter luciferase signal decrease, dose response, MITF inhibitor project, cell-based, SK-MEL-5, cherry-picked, set 3 (AID 493073).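 Note: SK-MEL-5 melanoma cells with luciferase driven by the MITF target TRPM1 promoter.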 The test is classed as functional.

The test system of test [6] is A-375. The test is described as follows: MITF: Counter assay: A375 proliferation Measured in Cell-Based System Using Plate Reader - 2084-03_Inhibitor_Dose_DryPowder_Activity. [Related pubchem assays (depositor defined):AID488944]. To be noted: Homo sapiens. The test is classed as functional.
A short description of test [7]: Shn3 3'UTR reporter inhibitors, dose response, cell-based, Clone20 osteoblasts, firefly luciferase, cherry-picked (AID 624132).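 Note: firefly luciferase luminescence from reporter carrying the Shn3 3'UTR in osteoblasts.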 The format is functional.
The nature of test [8]: HepG2 cell cytotoxicity, dose response, cytotoxicity control for Shn3 inhibitor project, CellTiter-Glo, cherry-picked (AID 624134). The test is classed as functional, cell-based. (In general: Cellular ATP, detected with luciferase, serves as a proxy for viable cell number.)
A short description of test [9]: control 3'UTR Renilla luciferase suppression, dose response, counter-screen for Shn3 inhibitor project, cell-based, Clone20-Shn3RL, cherry-picked (AID 624133). The test is classed as functional.
For test [10], the system named is A-375. The test is described as follows: A375 melanoma cell viability reduction, dose response, counter-screen for MITF modulator project, cherry-pick samples, set 2 (AID 540335). The format is functional, cell-based. To be noted: Homo sapiens.
The target in test [11] is T3, Long-chain-fatty-acid--AMP ligase FadD28 (Mycobacterium tuberculosis, UniProt P9WQ59).
T3 sequence (P9WQ59 whole entry): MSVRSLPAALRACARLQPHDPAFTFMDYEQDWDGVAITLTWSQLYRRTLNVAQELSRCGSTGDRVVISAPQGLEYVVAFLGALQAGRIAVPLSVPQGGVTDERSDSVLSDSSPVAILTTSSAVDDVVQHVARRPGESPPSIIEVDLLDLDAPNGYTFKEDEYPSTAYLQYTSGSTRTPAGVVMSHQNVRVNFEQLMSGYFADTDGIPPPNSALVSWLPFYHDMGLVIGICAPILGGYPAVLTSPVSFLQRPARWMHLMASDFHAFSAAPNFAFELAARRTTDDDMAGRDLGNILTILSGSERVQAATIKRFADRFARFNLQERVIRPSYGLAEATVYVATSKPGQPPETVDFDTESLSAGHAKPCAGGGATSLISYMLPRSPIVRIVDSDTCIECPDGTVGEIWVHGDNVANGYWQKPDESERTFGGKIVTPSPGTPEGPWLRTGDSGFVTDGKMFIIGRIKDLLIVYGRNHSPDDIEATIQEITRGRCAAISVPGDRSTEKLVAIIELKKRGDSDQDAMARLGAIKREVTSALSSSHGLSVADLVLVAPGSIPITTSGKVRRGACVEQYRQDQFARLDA
The test is described as follows: Fluorescence polarization aasay to screen for inhibitors that compete for the binding of FadD28 to a bisubstrate Measured in Biochemical System Using Plate Reader - 2147-01_Inhibitor_Dose_CherryPick_Activity. The test is classed as functional, Mycobacterium tuberculosis H37Rv. For orientation: Fluorescence polarisation rises when a labelled molecule tumbles more slowly, as on binding a larger partner.

Test [12] deals with Vero. The test is described as follows: cells. The test is classed as functional. To be noted: Chlorocebus sabaeus.
Test [13] has as its system Streptococcus sp. 'group A'. The test is described as follows: growth inhibition of control SK(-) GAS strain, dose response, counter-screen for streptokinase expression inhibitor project, luminescence, kanamycin, BacTiterGlo, confirmation (AID 1900). The test is classed as functional, organism-based.
The next test has as its target T4, Streptokinase A (Streptococcus pyogenes serotype M1, UniProt P10520).
T4 sequence (P10520 whole entry): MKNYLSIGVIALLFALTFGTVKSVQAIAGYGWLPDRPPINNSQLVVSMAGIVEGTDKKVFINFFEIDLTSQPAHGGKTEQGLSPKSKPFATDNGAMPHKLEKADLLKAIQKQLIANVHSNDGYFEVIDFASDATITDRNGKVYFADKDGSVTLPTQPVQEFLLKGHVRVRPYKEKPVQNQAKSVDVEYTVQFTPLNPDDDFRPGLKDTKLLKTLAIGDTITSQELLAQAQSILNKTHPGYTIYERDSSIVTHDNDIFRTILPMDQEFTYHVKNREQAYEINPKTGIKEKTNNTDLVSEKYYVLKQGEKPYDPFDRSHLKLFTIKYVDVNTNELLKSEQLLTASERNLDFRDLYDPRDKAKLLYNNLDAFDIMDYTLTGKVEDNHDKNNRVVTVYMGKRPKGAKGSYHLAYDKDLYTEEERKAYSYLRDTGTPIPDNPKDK
The test is described as follows: S. pyogenes streptokinase expression inhibitors, potency, dose response, plasminogen activation absorbance, OD405 (AID 1914).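 Note: secreted streptokinase activity via plasminogen activation per viability signal from cell pellet.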 The format is functional, Streptococcus pyogenes M1 GAS.

Another test concerns Streptococcus. The test is described as follows: Group A Streptococcus viability loss, dose response, counter-screen for streptokinase expression inhibitor project, luminescence, BacTiterGlo (AID 1915).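 Note: potency for reduction of bacterial viability or growth.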 The test is classed as functional, organism-based.
In the next test the test system is HeLa. The test can be described thus: HeLa cell cytotoxicity, dose response, cytotoxicity control for MITF activator project, CellTiter-Glo luminescence, cherry-pick samples (AID 540259). As to conditions: Homo sapiens. The format is functional, cell-based.

Calls of active or inactive are those of the source.

Sequence of E3 ubiquitin-protein ligase Mdm2 (Q00987 whole entry): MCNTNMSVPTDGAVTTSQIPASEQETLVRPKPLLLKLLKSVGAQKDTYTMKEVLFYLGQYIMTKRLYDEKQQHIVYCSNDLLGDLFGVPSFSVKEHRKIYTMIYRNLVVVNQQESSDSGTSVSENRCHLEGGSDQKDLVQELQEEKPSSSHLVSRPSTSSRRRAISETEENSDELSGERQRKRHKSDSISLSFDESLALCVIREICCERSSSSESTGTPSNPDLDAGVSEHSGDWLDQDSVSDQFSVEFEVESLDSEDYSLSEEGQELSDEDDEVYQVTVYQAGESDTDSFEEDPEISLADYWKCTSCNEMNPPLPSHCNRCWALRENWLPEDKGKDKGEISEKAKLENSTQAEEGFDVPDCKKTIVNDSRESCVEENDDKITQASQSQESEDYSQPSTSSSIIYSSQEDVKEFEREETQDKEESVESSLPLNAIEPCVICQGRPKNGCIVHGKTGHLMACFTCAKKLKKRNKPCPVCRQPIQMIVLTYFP

Take `COc1ccc(C)c2sc(N(CCCN(C)C)C(=O)c3ccc4c(c3)OCCO4)nc12`: in the test on Vero [1], the IC50 (as a rule, the concentration needed to halve the response being measured) was 24.2 µM (active).

On to `O=C(/C=C/c1cccc([N+](=O)[O-])c1)n1cnc2ccccc21`, for which the EC50 (as a rule, the concentration giving half of the maximal effect) in test [2] was 1.68 µM (active); in test [4], 1.62 µM (inconclusive). In addition, in [3], the IC50 is > 80 µM (inactive). Moreover, the AC50 (in general, the midpoint of the concentration-response curve, whichever way the signal moves) is 4.39 µM (active) in test [5]; 28.2 µM (active) in the test with A-375 [6]; 0.594 µM (active) in test [7]; > 70 µM (inactive) in test [8]; 14.7 µM (active) in [9].

Consider `O=C(O)c1cc(N/N=C/C(Cl)=C/c2ccccc2)ccc1Cl`, for which the AC50 was 10.4 µM (active) in test [5], > 11 µM (active) with A-375 [6], > 11 µM (active) in the test with A-375 [10] and 13.6 µM (active) in test [11].

On to `ClCCn1cnc2c(SCc3ccccc3)ncnc21`, for which the IC50 in the test on Vero [1] is 2.03 µM (active). Moreover, the CC50 (commonly the concentration that lowers cell viability or growth by half) in the test with Vero [12] was > 25 µM (active).

As to `Cc1nc(N)sc1N=Nc1ccc(F)cc1`, the EC50 in test [13] was 5.74 µM (active); on Streptokinase A, > 150 µM (not active); in the test on Streptococcus it was > 150 µM (not active). In addition, the AC50 in the test on HeLa is 79.5 µM (active).

Regarding `O=C(NCCc1ccccc1)c1nccc2ccccc12`, the AC50 in the test on HeLa was 68.6 µM (active).
